Laboratory results from ChEMBL document CHEMBL1201862, “PubChem BioAssay data set” (2004).
The source made the active and inactive calls.

Key:
[1] = biological target: Vascular endothelial growth factor receptor 2 (Homo sapiens, UniProt P35968); format: functional
[2] = biological target: Tyrosine-protein kinase ABL1 (Homo sapiens, UniProt P00519); format: functional
[3] = biological target: Serine/threonine-protein kinase Chk1 (Homo sapiens, UniProt O14757); format: functional;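 further: measured as one member of a kinome-wide kinase profiling panel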
[4] = biological target: Tyrosine-protein kinase Fyn (Homo sapiens, UniProt P06241); format: functional
[5] = biological target: Focal adhesion kinase 1 (Homo sapiens, UniProt Q05397); format: functional;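 further: measured as one member of a kinome panel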
[6] = biological target: Tyrosine-protein kinase JAK3 (Homo sapiens, UniProt P52333); format: functional
[7] = biological target: Activated CDC42 kinase 1 (Homo sapiens, UniProt Q07912); experiment: Navigating the Kinome. Panel member name: ACK1; format: functional
[8] = biological target: SUMO-activating enzyme (Homo sapiens, UniProt Q9UBT2); experiment: blockers of SAE1/SAE2–UBC9 SUMO transfer – biochemical, HTRF, uHTS, primary screen (AID 2006); format: protein-complex assay
[9] = biological target: T1, Sentrin-specific protease 6 (Homo sapiens, UniProt Q9GZR1); experiment: SAR Analysis of small molecule inhibitors of Sentrin-specific protease 6 (SENP6) using a Luminescent assay. [Related pubchem assays (depositor defined):AID2582, AID2599]; format: functional
T1 sequence (Q9GZR1 whole entry): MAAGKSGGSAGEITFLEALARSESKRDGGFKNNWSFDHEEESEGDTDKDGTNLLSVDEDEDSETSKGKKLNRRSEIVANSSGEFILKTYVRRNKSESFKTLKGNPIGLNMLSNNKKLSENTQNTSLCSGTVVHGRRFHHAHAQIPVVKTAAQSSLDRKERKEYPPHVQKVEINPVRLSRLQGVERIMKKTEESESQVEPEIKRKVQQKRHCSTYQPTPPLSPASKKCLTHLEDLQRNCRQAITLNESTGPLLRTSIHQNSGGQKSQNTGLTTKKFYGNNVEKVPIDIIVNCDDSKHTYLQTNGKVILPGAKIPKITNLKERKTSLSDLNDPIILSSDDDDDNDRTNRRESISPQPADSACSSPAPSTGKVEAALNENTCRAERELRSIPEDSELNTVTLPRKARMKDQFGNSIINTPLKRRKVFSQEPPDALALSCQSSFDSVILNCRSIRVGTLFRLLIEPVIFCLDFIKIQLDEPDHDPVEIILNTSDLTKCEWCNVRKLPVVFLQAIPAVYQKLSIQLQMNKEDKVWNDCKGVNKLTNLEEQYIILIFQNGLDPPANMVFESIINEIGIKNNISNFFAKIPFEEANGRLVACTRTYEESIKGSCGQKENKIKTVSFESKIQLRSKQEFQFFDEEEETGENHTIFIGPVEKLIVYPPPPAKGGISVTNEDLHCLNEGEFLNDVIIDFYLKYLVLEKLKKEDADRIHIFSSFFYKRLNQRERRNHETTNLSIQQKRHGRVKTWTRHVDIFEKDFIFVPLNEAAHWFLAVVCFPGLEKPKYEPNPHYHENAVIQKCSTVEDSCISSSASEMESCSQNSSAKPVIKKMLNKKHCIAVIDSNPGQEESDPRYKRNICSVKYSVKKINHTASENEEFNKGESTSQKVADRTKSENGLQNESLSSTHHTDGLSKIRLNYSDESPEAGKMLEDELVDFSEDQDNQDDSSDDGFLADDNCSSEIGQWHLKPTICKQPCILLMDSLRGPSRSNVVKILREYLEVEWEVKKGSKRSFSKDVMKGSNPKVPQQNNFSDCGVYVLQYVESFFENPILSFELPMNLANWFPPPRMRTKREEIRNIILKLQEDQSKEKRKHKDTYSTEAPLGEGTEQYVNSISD

[10] = biological target: T2, Apoptotic protease-activating factor 1 (Homo sapiens, UniProt O14727); format: functional
T2 sequence (O14727 whole entry): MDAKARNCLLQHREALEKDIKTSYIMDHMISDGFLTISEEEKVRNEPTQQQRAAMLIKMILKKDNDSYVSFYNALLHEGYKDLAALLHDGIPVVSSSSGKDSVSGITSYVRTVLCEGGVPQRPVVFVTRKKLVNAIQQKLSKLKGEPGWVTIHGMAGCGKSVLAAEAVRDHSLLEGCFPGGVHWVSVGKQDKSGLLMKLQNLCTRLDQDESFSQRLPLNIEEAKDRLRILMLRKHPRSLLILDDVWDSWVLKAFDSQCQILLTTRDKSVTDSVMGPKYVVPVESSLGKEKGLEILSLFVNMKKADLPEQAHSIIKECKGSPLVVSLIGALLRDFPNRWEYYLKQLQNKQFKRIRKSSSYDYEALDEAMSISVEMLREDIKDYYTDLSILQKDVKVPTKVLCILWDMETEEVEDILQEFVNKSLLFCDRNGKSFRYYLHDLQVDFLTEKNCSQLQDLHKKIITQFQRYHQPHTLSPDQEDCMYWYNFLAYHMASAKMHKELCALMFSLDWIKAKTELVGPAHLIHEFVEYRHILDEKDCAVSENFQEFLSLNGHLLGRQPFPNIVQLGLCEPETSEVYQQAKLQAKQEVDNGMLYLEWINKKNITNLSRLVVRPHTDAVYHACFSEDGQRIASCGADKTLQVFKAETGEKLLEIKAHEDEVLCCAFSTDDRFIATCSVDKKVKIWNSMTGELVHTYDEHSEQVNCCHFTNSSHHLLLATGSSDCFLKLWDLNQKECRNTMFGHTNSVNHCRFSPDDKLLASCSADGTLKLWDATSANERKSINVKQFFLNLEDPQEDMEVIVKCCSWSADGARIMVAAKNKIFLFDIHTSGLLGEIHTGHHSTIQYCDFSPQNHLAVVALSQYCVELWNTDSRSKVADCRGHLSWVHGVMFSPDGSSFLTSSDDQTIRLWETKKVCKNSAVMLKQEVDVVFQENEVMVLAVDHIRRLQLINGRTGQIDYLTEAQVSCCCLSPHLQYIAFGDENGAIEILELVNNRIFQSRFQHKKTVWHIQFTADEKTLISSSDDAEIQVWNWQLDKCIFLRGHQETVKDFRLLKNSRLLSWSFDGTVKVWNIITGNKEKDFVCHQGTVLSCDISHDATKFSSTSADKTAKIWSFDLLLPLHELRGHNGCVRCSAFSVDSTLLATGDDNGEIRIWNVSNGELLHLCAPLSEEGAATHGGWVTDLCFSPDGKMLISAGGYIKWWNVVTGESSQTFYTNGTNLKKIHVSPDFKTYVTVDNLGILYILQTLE

Serine/threonine-protein kinase Chk1, sequence (O14757 whole entry): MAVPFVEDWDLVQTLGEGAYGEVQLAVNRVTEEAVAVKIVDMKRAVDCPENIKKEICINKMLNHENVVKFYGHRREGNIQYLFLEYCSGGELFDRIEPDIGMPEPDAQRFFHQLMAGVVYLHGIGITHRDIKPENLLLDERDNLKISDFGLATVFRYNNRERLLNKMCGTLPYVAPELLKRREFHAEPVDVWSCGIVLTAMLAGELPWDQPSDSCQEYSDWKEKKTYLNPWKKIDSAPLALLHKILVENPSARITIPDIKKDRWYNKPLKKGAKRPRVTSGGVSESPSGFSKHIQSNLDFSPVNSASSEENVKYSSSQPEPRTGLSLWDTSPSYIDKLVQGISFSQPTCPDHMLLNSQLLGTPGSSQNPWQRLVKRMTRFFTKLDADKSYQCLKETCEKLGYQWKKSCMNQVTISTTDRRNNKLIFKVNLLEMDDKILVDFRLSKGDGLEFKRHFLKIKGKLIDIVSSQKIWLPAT
Activated CDC42 kinase 1, sequence (Q07912 whole entry): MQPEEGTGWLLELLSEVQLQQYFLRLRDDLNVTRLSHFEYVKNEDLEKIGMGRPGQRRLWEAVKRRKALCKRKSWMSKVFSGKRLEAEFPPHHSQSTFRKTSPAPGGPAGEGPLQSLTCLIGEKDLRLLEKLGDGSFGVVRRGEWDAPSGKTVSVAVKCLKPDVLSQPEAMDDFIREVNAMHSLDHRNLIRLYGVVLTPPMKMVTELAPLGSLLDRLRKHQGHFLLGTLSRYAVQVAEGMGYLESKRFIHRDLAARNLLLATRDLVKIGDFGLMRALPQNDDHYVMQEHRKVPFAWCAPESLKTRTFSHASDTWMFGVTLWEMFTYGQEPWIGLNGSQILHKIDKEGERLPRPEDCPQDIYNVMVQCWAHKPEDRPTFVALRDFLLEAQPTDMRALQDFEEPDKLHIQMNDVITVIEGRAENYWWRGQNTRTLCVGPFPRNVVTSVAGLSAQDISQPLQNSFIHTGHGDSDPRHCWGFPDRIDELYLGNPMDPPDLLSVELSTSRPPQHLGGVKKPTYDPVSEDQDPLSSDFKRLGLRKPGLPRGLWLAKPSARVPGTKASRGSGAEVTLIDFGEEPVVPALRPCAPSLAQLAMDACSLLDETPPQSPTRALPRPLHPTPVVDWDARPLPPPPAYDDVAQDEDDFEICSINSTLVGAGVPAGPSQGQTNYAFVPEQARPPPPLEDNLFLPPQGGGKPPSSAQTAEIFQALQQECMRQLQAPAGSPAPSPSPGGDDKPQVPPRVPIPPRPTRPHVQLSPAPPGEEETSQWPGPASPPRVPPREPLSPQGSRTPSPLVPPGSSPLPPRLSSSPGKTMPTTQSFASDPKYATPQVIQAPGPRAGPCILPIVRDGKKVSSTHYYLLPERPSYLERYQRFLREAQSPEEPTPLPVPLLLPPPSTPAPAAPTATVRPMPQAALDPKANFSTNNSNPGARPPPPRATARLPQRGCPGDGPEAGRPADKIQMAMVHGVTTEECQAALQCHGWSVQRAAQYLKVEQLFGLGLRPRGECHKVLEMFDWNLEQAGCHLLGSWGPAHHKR
SUMO-activating enzyme, sequence (Q9UBE0 whole entry): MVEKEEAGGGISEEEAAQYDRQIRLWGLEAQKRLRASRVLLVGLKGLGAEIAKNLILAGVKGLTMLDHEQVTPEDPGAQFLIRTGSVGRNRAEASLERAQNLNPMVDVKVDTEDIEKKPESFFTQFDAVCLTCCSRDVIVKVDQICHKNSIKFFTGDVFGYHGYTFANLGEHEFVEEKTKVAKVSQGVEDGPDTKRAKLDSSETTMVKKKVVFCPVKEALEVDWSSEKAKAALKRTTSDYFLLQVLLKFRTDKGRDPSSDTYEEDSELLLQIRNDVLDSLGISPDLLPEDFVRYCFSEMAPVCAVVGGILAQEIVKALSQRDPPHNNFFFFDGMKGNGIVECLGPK
SUMO-activating enzyme, sequence (Q9UBT2 whole entry): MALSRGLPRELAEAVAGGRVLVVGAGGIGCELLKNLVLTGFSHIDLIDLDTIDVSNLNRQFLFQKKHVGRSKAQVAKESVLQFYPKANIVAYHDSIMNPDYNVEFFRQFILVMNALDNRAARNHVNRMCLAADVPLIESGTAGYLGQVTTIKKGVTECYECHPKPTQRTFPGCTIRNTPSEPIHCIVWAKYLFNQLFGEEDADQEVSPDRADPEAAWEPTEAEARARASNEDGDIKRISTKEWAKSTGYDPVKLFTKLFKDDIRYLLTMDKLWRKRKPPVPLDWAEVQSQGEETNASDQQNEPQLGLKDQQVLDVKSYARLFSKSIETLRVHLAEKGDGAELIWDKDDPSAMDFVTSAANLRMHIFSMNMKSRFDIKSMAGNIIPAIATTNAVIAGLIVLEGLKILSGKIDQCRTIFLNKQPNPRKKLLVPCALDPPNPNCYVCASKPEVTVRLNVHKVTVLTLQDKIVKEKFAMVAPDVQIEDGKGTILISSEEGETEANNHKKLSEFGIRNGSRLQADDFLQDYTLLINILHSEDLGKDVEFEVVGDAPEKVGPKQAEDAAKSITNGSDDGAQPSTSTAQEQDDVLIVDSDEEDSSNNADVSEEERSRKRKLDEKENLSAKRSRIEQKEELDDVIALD
Tyrosine-protein kinase ABL1, sequence (P00519 whole entry): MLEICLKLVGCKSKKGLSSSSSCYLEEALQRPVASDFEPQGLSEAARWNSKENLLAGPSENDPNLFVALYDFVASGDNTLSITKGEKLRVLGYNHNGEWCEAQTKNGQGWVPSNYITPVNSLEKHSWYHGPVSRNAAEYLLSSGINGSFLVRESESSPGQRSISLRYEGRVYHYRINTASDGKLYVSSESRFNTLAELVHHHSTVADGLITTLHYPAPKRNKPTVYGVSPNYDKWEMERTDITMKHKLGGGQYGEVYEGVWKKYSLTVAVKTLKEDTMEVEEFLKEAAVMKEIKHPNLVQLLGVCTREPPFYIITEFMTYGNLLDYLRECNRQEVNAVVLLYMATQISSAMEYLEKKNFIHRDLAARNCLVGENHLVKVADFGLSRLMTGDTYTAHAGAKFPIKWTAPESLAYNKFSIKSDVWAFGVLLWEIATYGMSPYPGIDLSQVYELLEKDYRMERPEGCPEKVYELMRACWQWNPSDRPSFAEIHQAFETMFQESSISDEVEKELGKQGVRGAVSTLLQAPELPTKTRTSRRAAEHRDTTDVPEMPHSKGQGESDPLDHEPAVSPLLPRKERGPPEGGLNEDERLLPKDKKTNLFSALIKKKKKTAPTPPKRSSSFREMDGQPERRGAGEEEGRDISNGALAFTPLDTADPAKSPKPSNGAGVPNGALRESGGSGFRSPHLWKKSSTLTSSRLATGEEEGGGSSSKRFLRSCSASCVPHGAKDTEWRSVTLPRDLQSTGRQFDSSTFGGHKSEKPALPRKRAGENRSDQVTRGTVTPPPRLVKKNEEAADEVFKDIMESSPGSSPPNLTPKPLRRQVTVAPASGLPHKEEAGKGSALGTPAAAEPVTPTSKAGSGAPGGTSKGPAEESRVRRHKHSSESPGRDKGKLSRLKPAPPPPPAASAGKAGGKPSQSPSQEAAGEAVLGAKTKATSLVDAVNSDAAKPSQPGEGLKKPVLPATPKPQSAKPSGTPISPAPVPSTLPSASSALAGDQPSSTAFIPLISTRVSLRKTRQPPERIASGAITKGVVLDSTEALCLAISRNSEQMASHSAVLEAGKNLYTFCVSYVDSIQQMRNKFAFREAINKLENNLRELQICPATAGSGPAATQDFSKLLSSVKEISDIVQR
Vascular endothelial growth factor receptor 2, sequence (P35968 whole entry): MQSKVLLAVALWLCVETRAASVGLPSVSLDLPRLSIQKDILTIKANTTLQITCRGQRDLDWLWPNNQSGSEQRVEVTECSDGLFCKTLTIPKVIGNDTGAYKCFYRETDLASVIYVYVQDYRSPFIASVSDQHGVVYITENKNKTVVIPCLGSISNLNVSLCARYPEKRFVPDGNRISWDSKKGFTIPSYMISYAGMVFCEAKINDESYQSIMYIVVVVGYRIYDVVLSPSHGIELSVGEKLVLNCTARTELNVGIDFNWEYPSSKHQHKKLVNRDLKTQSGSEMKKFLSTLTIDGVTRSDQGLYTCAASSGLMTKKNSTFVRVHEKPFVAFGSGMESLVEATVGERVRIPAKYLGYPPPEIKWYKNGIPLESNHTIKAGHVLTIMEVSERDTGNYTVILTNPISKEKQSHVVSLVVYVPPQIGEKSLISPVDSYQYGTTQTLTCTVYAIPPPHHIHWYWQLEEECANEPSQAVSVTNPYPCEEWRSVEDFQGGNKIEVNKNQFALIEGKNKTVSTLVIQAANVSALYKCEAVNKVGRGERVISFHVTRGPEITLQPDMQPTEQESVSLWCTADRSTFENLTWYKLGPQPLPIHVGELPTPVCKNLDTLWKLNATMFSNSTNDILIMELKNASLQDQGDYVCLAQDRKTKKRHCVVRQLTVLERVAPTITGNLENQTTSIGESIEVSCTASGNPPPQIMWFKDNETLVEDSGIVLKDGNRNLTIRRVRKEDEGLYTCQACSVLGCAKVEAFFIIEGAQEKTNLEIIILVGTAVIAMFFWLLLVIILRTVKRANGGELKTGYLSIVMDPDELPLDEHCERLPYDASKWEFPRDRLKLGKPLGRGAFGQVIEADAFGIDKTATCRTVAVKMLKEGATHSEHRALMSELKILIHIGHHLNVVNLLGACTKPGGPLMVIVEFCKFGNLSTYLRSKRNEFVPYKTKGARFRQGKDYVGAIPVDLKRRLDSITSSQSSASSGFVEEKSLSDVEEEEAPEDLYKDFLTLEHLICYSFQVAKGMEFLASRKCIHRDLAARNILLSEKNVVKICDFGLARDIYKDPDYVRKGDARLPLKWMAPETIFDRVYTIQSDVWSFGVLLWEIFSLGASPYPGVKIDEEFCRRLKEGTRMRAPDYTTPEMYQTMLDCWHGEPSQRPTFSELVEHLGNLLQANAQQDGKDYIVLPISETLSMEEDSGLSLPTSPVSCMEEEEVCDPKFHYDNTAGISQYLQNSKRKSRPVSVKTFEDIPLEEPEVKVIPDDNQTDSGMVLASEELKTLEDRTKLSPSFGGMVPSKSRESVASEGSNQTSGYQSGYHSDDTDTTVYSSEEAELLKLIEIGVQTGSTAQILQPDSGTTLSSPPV

SMILES	Ki [1]	Ki [2]	Ki [3]	Ki [4]	Ki [5]	Ki [6]	Ki [7]	IC50 [8]	IC50 [9]	IC50 [10]
O=C(Cc1cccs1)Nc1nc2ccccc2s1	> 2.51 µM (inactive)	> 2.51 µM (inactive)	316 nM (active)	5.01 µM (active)	> 6.31 µM (inactive)	> 5.01 µM (inactive)	> 3.98 µM (inactive)	–	–	–
O=C(NNc1cc(N2CCCC2)nc(N2CCCC2)n1)c1ccc([N+](=O)[O-])cc1	–	–	–	–	–	–	–	5.63 µM (active)	1.43 µM (active)	11.9 µM (active)
